The conditions of data set [1]: PAMPA, pH 7.4. The source says:
The blood brain permeability was expressed as permeability coefficient, P (10-6 cm/s) and −log Pe.
(In general: The PAMPA barrier holds no transporters, so it reflects passive diffusion.)

A short description of data set [2]: serum stability by rad-TLC, human serum. The data set is classed as in vitro ADME. The conditions noted are these: 37° C., up to 120 min. The method, then:
(§1) The stability of both the probes in mouse and human serums was also measured along with a control at 0 min, 30 min, 60 min, and 120 min using rad-TLC as discussed later below. It was observed that [^18F]F-CNBI was stable >92% up to 120 min.
(§2) Serum Stability Analysis: Stability analysis of [^18F]F-CNBI and [^18F]F-CNPIFE were assessed in human and mouse serums. To perform this stability assay, 100 μL of [^18F]F-CNBI (˜0.74 MBq) or 100 μL of [^18F]F-CNPIFE (˜3.70 MBq) was added to 100 μL of human or mouse serum in a microcentrifuge tube. The resultant mixture of radiotracer and serum was incubated at 37° C. for 120 min. To assess the stability of the probes, a small aliquot (˜0.5 μL) was taken out from the mixture in duplicate at 0 min, 30 min, 60 min and 120 min during incubation, and analyzed on a rad-TLC using 1:9 methanol: chloroform as a mobile phase using i-TLC to estimate the radio-stability of [^18F]F-CNBI or [^18F]F-CNPIFE at different time points post-incubation. For control, 100 μL of [^18F]F-CNBI (˜0.74 MBq) was taken in a microcentrifuge without dilution or 100 μL of [^18F]F-CNPIFE (˜3.70 MBq) was added to 100 μL deionized water in a microcentrifuge tube. Both the controls, were incubated at 25° C. for 120 min. At 0 min, 30 min, 60 min and 120 min during incubation, small aliquot (˜0.5 μL) was taken from the controls in duplicate and rad-TLC was performed as mentioned above. […]

The nature of data set [3]: in vivo PET imaging in mice (Example 1), brain uptake. The conditions noted are these: mouse brain. The method, then: Initial in vivo study in mouse model: Initial in vivo PET imaging studies were conducted in mice at different time points. The uptake of the [^18F]CNPIFE (28) probe is expressed as a standard uptake value (SUV).
In vivo study in mouse model: In vivo PET imaging studies were conducted in mice at different time points to compare the SUV for [^18F]—CNBI (4) and [^18F]CNPIFE (28).

Data set [4] can be described thus: serum stability by rad-TLC, mouse serum. The data set is classed as in vitro ADME. The conditions noted are these: 37° C., up to 120 min. The method, then:
as §1, §2

A short description of data set [5]: dynamic micro-PET imaging and biodistribution in normal FVB/NJ mice with and without self-blocking. The data set is classed as in vivo, mouse. The conditions noted are these: for effect of co-administration of the reference compound on brain uptake: self-blocking study. The method, then:
To pursue this, [^18F]F-CNBI and [^18F]F-CNPIFE were evaluated in the normal FVB/NJ mouse model.
The uptake of [^18F]F-CNPIFE (SUV=0.48±0.09; n=5) in brain was 2.5-fold higher than [^18F]F-CNBI (SUV=0.19±0.06; n=6) as early as 5 min post-injection. This difference increased with time: 4.8-fold higher SUV for [^18F]F-CNPIFE (SUV=0.48±0.11; n=5) as compared to [^18F]F-CNBI (SUV=0.10±0.01; n=6) at 15 min which further increased to 9.5-fold difference at 30 min (see FIG. 21). […] The differences in uptakes of [^18F]F-CNPIFE and [^18F]F-CNBI in the brain and liver likely relate to the difference in their chemical structures (compounds 4 and 28). Greater accumulation of [^18F]F-CNPIFE in the brain relative to [^18F]F-CNBI was consistent with its higher BBB permeability value indicated by the PAMPA assay (see Table 1).
To further understand the characteristics of the uptake of these PET probes in the brain, self-blocking studies with corresponding non-radiolabeled reference compounds were performed. In general, co-administration of [^18F]F-CNBI and [^18F]F-CNPIFE with their corresponding reference compounds, [^19F]F-CNBI and [^19F]F-CNPIFE, respectively, were expected to decrease the uptake of radiotracers in the brain. […] However, a non-significant trend in increase in brain uptake of [^18F]F-CNPIFE can be noticed on coadministration of nonradioactive [^19F]F-CNPIFE with the PET probe [^18F]F-CNPIFE. […] We hypothesize that enhanced brain uptake with additional administration of nonradioactive form of the tracer could be attributed to the binding of [^19F]F-CNBI with normally expressed GSK-3α/β in extremities and allowing relatively greater levels of [^18F]F-CNBI to be taken up by the brain as a peripheral effect.
In vivo study: Biodistribution of [^18F]F-CNBI and [^18F]F-CNPIFE were assessed in brain and in liver of normal FVB/NJ mice (The Jackson Laboratory, Bar Harbor, ME) with and without co administration of unlabeled reference compounds [^19F]F-CNBI (200 μg and 300 μg) and [^19F]F-CNPIFE (25 μg) in separate groups of animals. Stock solutions of [^19F]F-CNPIFE (26 mM) and [^19F]F-CNBI (25 mM) were prepared in the dimethyl sulfoxide (DMSO). For blocking studies with [^19F]F-CNBI, 200 μg (530.5 nmol) or 300 μg (795.8 nmol) of [^19F]F-CNBI (nonradioactive reference compound) was added to the PET probe [^18F]F-CNBI self-containing ˜9.3 nmol [^19F]F-CNBI in the final formulation volume of ˜100 μL. For blocking with [^19F]F-CNPIFE, 25 μg (59 nmol) of [^19F]F-CNPIFE was added to the PET probe [^18F]F-CNPIFE self-containing to 0.8-1.0 nmol of [^19F]F-CNPIFE in the final formulation volume of ˜100 μL. The final formulation containing both PET probes and their nonradioactive reference compounds were prepared in 0.9% saline isotonic solution before tail vein injection. Immediately after the tail vein injection of the radiotracers, animals were subjected to a dynamic micro-PET imaging for 30 min using a small animal micro-PET/X-ray system (Sofie BioSystems Genesys4, Culver City, CA, USA). The PET images were visualized and analyzed using image analysis software, Amide's a Medical Image Data Examiner—AMIDE [Ref. 29]. PET images at 5 min, 10 min, 15 min, 20 min, 25 min, and 30 min post-injection were normalized to the standardized uptake value (SUV), where SUV=(Concentration of dose in tissue (μCi/g)/(Injected dose (μCi)/Weight of the animal (g)) and presented as coronal, transverse and sagittal sectional image.

Data set [6] concerns various tau isoforms and other proteins involved in neurodegeneration. As to the kind of experiment: affinity towards tau isoforms and other proteins involved in neurodegeneration. In kind it is binding. The method, then:
The affinity of [^18F]CNPIFE (28) towards various tau isoforms and other proteins involved in neurodegeneration was measured.

The test system of another data set is GSK-3. As to the kind of experiment: binding affinity comparison with previous compounds, isoform not stated. In kind it is biochemical. The conditions noted are these: relative to [18F]CNBI (4). The method, then: The inhibitory effect of [^18F]—CNBI (4) and [^18F]—CNPI (25) (as synthesized as described above) and [^18F]CNPIFE (28) (as synthesized as shown in FIG. 10) on kinase activity was measured. […] Determination of IC50 was determined as follows. The phosphorylation of glycogen synthase substrate by human glycogen synthase kinase α (GSK-3α) or human glycogen synthase kinase β (GSK-3β) was performed using human GSK-3α/β Kinase Enzyme Assay System (Promega Corporation, Madison, WI) in the presence of GSK-3α/β probes (0-400 nM). The phosphorylation of glycogen synthase substrate was quantified using ADP-Glo™ Kinase assay system (Promega Corporation, Madison, WI). IC50 of GSK-3α/β probes was determined from resulting dose response curve and IC50 curve fitting tool of GraphPad Prism 10 (GraphPad Software, San Diego, CA). (See Stein et al., “Comparison of [^18F]F-CNBI and [^18F]F-CNPIFE as Positron Emission Tomography Probes for Noninvasive Imaging of Glycogen Synthase Kinase-3 in Normal Mice”, Eur. J. Org. Chem. 2022).
It can be seen that [^18F]CNPIFE (28) has better purity (about 99% purity), better binding affinity (6×), and better blood brain barrier permeability (6×) compared to previous compounds such as [^18F]CNBI (4). The standard uptake is very close to 1, and to the gold standard value for [N-Methyl-^11C]2-(4′-methylaminophenyl)-6-hydroxybenzothiazole also known as [^11C] […]

Setting [7] is: FVB/NJ mice, 5 min post-injection.
Setting [8] is: FVB/NJ mice, 15 min post-injection.
[9] abbreviates: FVB/NJ mice, 30 min post-injection, without coadministration of reference compound.

Where a name gives a salt, the structure may show the parent alone.

From patent US20250025581A1, “Medical Imaging of Glycogen Synthase Kinase-3 with a PET Probe” (Mayo Foundation for Medical Education and Research, priority 2021, published 2025) come the findings set out here.

For `CC(C)NCC(O)COc1cccc2ccccc12` (stereo not drawn) [Propranolol HCl], the “Permeability coefficient, P (10^−6 cm/s) Average ± SD” value in data set [1] is on record as 32±1 10^−6 cm/s.
With `O=C(Nc1cnccc1-c1ccc([18F])nc1)c1ccnc(NC(=O)C2CC2)c1` [[^18F]F-CNBI, 2-(cyclopropanecarboxamido)-N-(6-(fluoro-^18F)-[3,4′-bipyridin]-3′-yl)isonicotinamide], the “stability in human serum” value in data set [2] is on record as more than 92%. Moreover, the “uptake in the brain (SUV)” value in data set [3] was found to be 0.4 SUV. Further, the “stability in mouse serum” value in data set [4] is more than 92%. In addition, in data set [5] (30 min post-injection, 200-300 μg [19F]F-CNBI), the “fold difference of brain uptake with blocking (coadministration of [19F]F-CNBI)” value is reported as 2.5-3.0 fold. For the same compound, the “brain uptake (SUV)” value in data set [5] (30 min post-injection, co-injected with 300 μg [19F]F-CNBI) came out at 0.24±0.01 SUV; in data set [5] (30 min post-injection, coadministration of 200 μg [19F]F-CNBI) it was 0.20±0.01 SUV; in data set [5] (setting [7]) it was 0.19±0.06 SUV; in data set [5] (setting [8]), 0.10±0.01 SUV; in data set [5] (setting [9]) it was 0.08±0.005 SUV. Moreover, the “liver uptake (SUV)” value in data set [5] (co-injected with 200 μg [19F]F-CNBI) was 4.93±0.52 SUV; in data set [5] (co-injected with 300 μg [19F]F-CNBI), 3.89±0.60 SUV; in data set [5] (same animals as brain 30 min, without coadministration of [19F]F-CNBI), 10.15±2.87 SUV. Further, the “effect of co-administration of the reference compound on brain uptake” value in data set [5] is recorded as “significant increase”.
For `O=C(Nc1cnccc1-c1ccc(OCC[18F])cc1)c1ccnc(NC(=O)C2CC2)c1` [[^18F]F-CNPIFE], in data set [2], the “stability in human serum” value was more than 83%. Also, the “binding with various tau isoforms and other proteins involved in neurodegeneration” value in data set [6] is “no to minimum binding”. In the data set with GSK-3, the “better binding affinity compared to previous compounds such as [18F]CNBI (4)” value is given as 6 ×. Besides, the “uptake in the brain (SUV)” value in data set [3] was 0.9 SUV. Moreover, in data set [4], the “stability in mouse serum” value was more than 83%. Further, the entries for the “brain uptake, fold higher than [18F]F-CNBI” value in data set [5] (5 min post-injection), in data set [5] (15 min post-injection) and in data set [5] (30 min post-injection) were 2.5 fold, 4.8 fold and 9.5 fold, respectively. Moreover, the “brain uptake (SUV)” value in data set [5] (30 min post-injection, coadministration of 25 μg [19F]F-CNPIFE) was found to be 0.88±0.14 SUV; in data set [5] (setting [7]) it was 0.48±0.09 SUV; in data set [5] (setting [8]), 0.48±0.11 SUV; in data set [5] (setting [9]) it was 0.76±0.16 SUV. Moreover, the “effect of co-administration of the reference compound on brain uptake” value in data set [5] was “no significant difference”.
